How the values were obtained:
[1] = target: human BRD4 first bromodomain (BDI_K57-E168) (Homo sapiens (Human), UniProt O60885); assay: TR-FRET bromodomain binding assay, BRD4 first bromodomain
[2] = target: human BRD4 second bromodomain (BDII_E352-M457) (Homo sapiens (Human), UniProt O60885); assay: TR-FRET bromodomain binding assay, BRD4 second bromodomain
[3] = system: breast cancer cell line MX-1; assay: MX-1 cell line proliferation assay; assay type: cell-based, human; conditions: Homo sapiens, MX1, 72 h; MX-1 cells, 3-day proliferation, Cell Titer Glo; read-out: Cellular proliferation: EC50
[4] = Human liver microsome stability assay; assay type: in vitro ADME; conditions: both sexes, human, microsomes, pH 7.4
[5] = Rat liver microsome stability assay; assay type: in vitro ADME; conditions: rat liver microsomes (male Sprague-Dawley), 0.5 μM test compound, 0.25 mg/mL microsomal protein, pH 7.4, 37° C.; read-out: Stability in rat liver microsomes (t1/2 in minutes)
[6] = Mouse liver microsome stability assay; assay type: in vitro ADME; conditions: male, CD1, mouse, microsomes, pH 7.4

Compound	Ki [1]	Ki [2]	EC50 [3]	half-life at 0.5 μM [4]	half-life at 0.5 μM [5]	half-life at 0.5 μM [6]
CCS(=O)(=O)Nc1ccc(OCC2CC2)c(-c2cn(C)c(=O)c3[nH]ccc23)c1 [Example 145, N-[4-(cyclopropylmethoxy)-3-(6-methyl-7-oxo-6,7-dihydro-1H-pyrrolo[2,3-c]pyridin-4-yl)phenyl]ethanesulfonamide]	0.0027 µM	0.0056 µM	0.0264 µM	> 120 min	12 min	16 min
Cn1cc(-c2cc(NS(C)(=O)=O)ccc2Oc2ccccc2)c2cc(C(N)=O)[nH]c2c1=O [Example 73, 6-methyl-4-{5-[(methylsulfonyl)amino]-2-phenoxyphenyl}-7-oxo-6,7-dihydro-1H-pyrrolo[2,3-c]pyridine-2-carboxamide]	0.00098 µM	0.0005 µM	0.0207 µM	36 min	2 min	31 min
CCS(=O)(=O)Nc1ccc(Oc2ccccc2)c(-c2cn(C)c(=O)c3[nH]ccc23)c1 [Example 21, N-[3-(6-methyl-7-oxo-6,7-dihydro-1H-pyrrolo[2,3-c]pyridin-4-yl)-4-phenoxyphenyl]ethanesulfonamide]	0.00039 µM	0.00025 µM	0.0139 µM	> 120 min	3 min	22 min
Cc1ccc(F)c(Oc2ccc(S(C)(=O)=O)cc2-c2cn(C)c(=O)c3[nH]ccc23)c1 [Example 186, 4-[2-(2-fluoro-5-methylphenoxy)-5-(methylsulfonyl)phenyl]-6-methyl-1,6-dihydro-7H-pyrrolo[2,3-c]pyridin-7-one]	0.0101 µM	0.0033 µM	0.0484 µM	9 min	3 min	8 min
Cn1cc(-c2cc(C(=O)NC3CCS(=O)(=O)C3)ccc2Oc2ccccc2)c2cc[nH]c2c1=O (stereo not drawn) [Example 18, N-(1,1-dioxidotetrahydrothiophen-3-yl)-3-(6-methyl-7-oxo-6,7-dihydro-1H-pyrrolo[2,3-c]pyridin-4-yl)-4-phenoxybenzamide]	0.0102 µM	0.0103 µM	0.209 µM	31 min	11 min	15 min
CCS(=O)(=O)Nc1ccc(OC2CCCOC2)c(-c2cn(C)c(=O)c3[nH]ccc23)c1 (stereo not drawn) [Example 105, N-[3-(6-methyl-7-oxo-6,7-dihydro-1H-pyrrolo[2,3-c]pyridin-4-yl)-4-(tetrahydro-2H-pyran-3-yloxy)phenyl]ethanesulfonamide]	0.00052 µM	0.0015 µM	0.016 µM	> 120 min	13 min	7 min
Cn1cc(-c2cc(NS(C)(=O)=O)ccc2OC2CCOC2)c2cc[nH]c2c1=O (stereo not drawn) [Example 31, N-[3-(6-methyl-7-oxo-6,7-dihydro-1H-pyrrolo[2,3-c]pyridin-4-yl)-4-(tetrahydrofuran-3-yloxy)phenyl]methanesulfonamide]	0.0018 µM	0.0134 µM	0.0398 µM	56 min	> 120 min	19 min
CC(C)S(=O)(=O)c1ccc(NCC2CC2)c(-c2cn(C)c(=O)c3[nH]ccc23)c1 [Example 261, 4-{2-[(cyclopropylmethyl)amino]-5-(propan-2-ylsulfonyl)phenyl}-6-methyl-1,6-dihydro-7H-pyrrolo[2,3-c]pyridin-7-one]	0.0015 µM	0.0016 µM	0.0072 µM	25 min	5 min	16 min
CNS(=O)(=O)Nc1ccc(OC2CCCOC2)c(-c2cn(C)c(=O)c3[nH]ccc23)c1 (stereo not drawn) [Example 108, N-methyl-N′-[3-(6-methyl-7-oxo-6,7-dihydro-1H-pyrrolo[2,3-c]pyridin-4-yl)-4-(tetrahydro-2H-pyran-3-yloxy)phenyl]sulfuric diamide]	0.0014 µM	0.0053 µM	0.038 µM	37 min	33 min	13 min
CC(=O)Nc1ccc(Oc2ccc(F)cc2F)c(-c2cn(C)c(=O)c3[nH]ccc23)c1 [Example 37, N-[4-(2,4-difluorophenoxy)-3-(6-methyl-7-oxo-6,7-dihydro-1H-pyrrolo[2,3-c]pyridin-4-yl)phenyl]acetamide]	0.0113 µM	0.0108 µM	0.0593 µM	88.9 min	54 min	3 min
Cn1cc(-c2cc(C(=O)N3CCC(NC(=O)OC(C)(C)C)C3)ccc2Oc2ccc(F)cc2F)c2cc[nH]c2c1=O (stereo not drawn) [Example 54, tert-butyl {1-[4-(2,4-difluorophenoxy)-3-(6-methyl-7-oxo-6,7-dihydro-1H-pyrrolo[2,3-c]pyridin-4-yl)benzoyl]pyrrolidin-3-yl}carbamate]	0.0951 µM	0.0375 µM	0.266 µM	3 min	30 min	2 min
Cn1cc(-c2cc(C(N)=O)ccc2Oc2ccccc2)c2cc[nH]c2c1=O [Example 19, 3-(6-methyl-7-oxo-6,7-dihydro-1H-pyrrolo[2,3-c]pyridin-4-yl)-4-phenoxybenzamide]	0.0074 µM	0.0042 µM	0.123 µM	92 min	13 min	33 min
CCCS(=O)(=O)Nc1ccc(OC2CCOCC2)c(-c2cn(C)c(=O)c3[nH]ccc23)c1 [Example 99, N-[3-(6-methyl-7-oxo-6,7-dihydro-1H-pyrrolo[2,3-c]pyridin-4-yl)-4-(tetrahydro-2H-pyran-4-yloxy)phenyl]propane-1-sulfonamide]	0.0035 µM	0.0247 µM	0.0977 µM	> 120 min	22 min	35 min
Cn1cc(-c2cc(S(C)(=O)=O)ccc2NCC2CCOC2)c2cc[nH]c2c1=O (stereo not drawn) [Example 201, 6-methyl-4-{5-(methylsulfonyl)-2-[(tetrahydrofuran-3-ylmethyl)amino]phenyl}-1,6-dihydro-7H-pyrrolo[2,3-c]pyridin-7-one]	0.0102 µM	0.0407 µM	0.135 µM	56 min	117 min	> 120 min

Other lines, results leading:

Ki [1]	Ki [2]	EC50 [3]	half-life at 0.5 μM [4]	half-life at 0.5 μM [5]	half-life at 0.5 μM [6]	Compound
0.0189 µM	0.0346 µM	0.138 µM	7 min	22 min	12 min	Cn1cc(-c2cc(S(C)(=O)=O)ccc2Oc2ccc(F)cc2F)c2cc(CNc3nccs3)[nH]c2c1=O [Example 283, 4-[2-(2,4-difluorophenoxy)-5-(methylsulfonyl)phenyl]-6-methyl-2-[(1,3-thiazol-2-ylamino)methyl]-1,6-dihydro-7H-pyrrolo[2,3-c]pyridin-7-one]
0.181 µM	0.0456 µM	0.0668 µM	> 120 min	57 min	> 120 min	CCS(=O)(=O)c1ccc(Oc2ccc(F)cc2F)c(-c2cn(C)c(=O)c3[nH]ncc23)c1 [Example 322, 4-[2-(2,4-difluorophenoxy)-5-(ethylsulfonyl)phenyl]-6-methyl-1,6-dihydro-7H-pyrazolo[3,4-c]pyridin-7-one]
0.0306 µM	0.0169 µM	0.0859 µM	> 120 min	> 120 min	> 120 min	Cn1cc(-c2cc(S(C)(=O)=O)ccc2Oc2ccccc2CCO)c2cc[nH]c2c1=O [Example 309, 4-{2-[2-(2-hydroxyethyl)phenoxy]-5-(methylsulfonyl)phenyl}-6-methyl-1,6-dihydro-7H-pyrrolo[2,3-c]pyridin-7-one]
0.0173 µM	0.0723 µM	0.204 µM	9 min	21 min	7 min	Cn1cc(-c2cc(S(C)(=O)=O)ccc2Oc2ccc(F)cc2F)c2cc(CNc3ccccc3)[nH]c2c1=O [Example 282, 4-[2-(2,4-difluorophenoxy)-5-(methylsulfonyl)phenyl]-6-methyl-2-[(phenylamino)methyl]-1,6-dihydro-7H-pyrrolo[2,3-c]pyridin-7-one]
0.0762 µM	0.152 µM	0.115 µM	44 min	5 min	17 min	Cn1cc(-c2cc(CC#N)ccc2OCC2CC2)c2cc[nH]c2c1=O [Example 336, [4-(cyclopropylmethoxy)-3-(6-methyl-7-oxo-6,7-dihydro-1H-pyrrolo[2,3-c]pyridin-4-yl)phenyl]acetonitrile]
0.155 µM	0.199 µM	0.703 µM	21 min	10 min	8 min	Cn1cc(-c2cc(C3=CCN(C(=O)OC(C)(C)C)CC3)ccc2OCC2CC2)c2cc[nH]c2c1=O [Example 325, tert-butyl 4-[4-(cyclopropylmethoxy)-3-(6-methyl-7-oxo-6,7-dihydro-1H-pyrrolo[2,3-c]pyridin-4-yl)phenyl]-3,6-dihydropyridine-1(2H)-carboxylate]
0.0108 µM	0.0075 µM	0.111 µM	19 min	10 min	12 min	Cn1cc(-c2cc(S(=O)(=O)c3ccccc3)ccc2OCC2CC2)c2cc[nH]c2c1=O [Example 285, 4-[2-(cyclopropylmethoxy)-5-(phenylsulfonyl)phenyl]-6-methyl-1,6-dihydro-7H-pyrrolo[2,3-c]pyridin-7-one]
